Measured values taken from patent US11519025B2, “Cation chelator hot start” (priority 2014, dated 2022).
Where “and” joins values, the source holds several entries; their conditions need not be identical. Identical values can stand only once. Entries after “also recorded” stand apart in the source; their conditions may differ. Counter-ions that a name gives are not always drawn. Like-named read-outs stand apart in the source and are kept apart here.

How the values were obtained:
[1] = vendor product list; cited from earlier work
[2] = biological target: DNase, a nuclease isolated from bovine pancreas (Bos taurus, UniProt P00639); details: for DNase enzymatic activity: 100 μM EDTA
Sequence of DNase, a nuclease isolated from bovine pancreas (P00639 23-282): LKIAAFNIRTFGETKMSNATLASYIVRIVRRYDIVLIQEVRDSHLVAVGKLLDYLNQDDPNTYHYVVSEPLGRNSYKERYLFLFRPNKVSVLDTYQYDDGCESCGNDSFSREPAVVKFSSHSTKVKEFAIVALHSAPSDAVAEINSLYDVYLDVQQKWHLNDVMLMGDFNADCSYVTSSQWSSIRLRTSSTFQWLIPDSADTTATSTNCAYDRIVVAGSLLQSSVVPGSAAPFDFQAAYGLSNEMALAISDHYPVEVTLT

[3] = biological target: T1, chemically inactivated Taq DNA polymerase (Thermus aquaticus, UniProt P19821); assay: Amplification of bisulphite-treated DNA in the presence of different EGTA concentrations (residual activity of chemically inactivated Taq, Ct and HRM melting curves); assay type: biochemical
T1 sequence (P19821 whole entry): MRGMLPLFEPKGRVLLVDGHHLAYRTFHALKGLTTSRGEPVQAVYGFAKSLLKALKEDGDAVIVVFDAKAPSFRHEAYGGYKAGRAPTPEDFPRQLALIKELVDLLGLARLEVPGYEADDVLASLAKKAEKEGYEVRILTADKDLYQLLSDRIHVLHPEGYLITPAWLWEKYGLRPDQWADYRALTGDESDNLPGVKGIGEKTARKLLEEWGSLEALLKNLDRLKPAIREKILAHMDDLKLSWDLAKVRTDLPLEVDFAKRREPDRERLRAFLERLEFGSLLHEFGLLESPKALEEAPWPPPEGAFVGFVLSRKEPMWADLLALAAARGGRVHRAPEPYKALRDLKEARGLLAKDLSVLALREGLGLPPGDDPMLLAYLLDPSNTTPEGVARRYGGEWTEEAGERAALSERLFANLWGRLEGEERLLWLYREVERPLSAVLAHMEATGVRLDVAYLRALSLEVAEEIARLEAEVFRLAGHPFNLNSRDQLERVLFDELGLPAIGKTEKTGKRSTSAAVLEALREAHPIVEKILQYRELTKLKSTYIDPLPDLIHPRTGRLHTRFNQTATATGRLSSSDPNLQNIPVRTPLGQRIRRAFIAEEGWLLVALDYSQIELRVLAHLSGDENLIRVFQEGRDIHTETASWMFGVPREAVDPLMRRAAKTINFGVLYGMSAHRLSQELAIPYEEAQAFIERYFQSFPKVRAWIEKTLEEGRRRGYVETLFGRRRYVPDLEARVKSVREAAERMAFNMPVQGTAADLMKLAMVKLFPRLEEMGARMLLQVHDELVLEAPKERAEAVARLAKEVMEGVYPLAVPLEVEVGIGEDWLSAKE
Excerpt: The following experiments employed a system to detect the formation of primer dimers in a PCR reaction mixture using residual active Taq polymerase molecules. Herein, bisulphite-treated DNA is used as a template. As a consequence of the bisulphite treatment, which entails the chemical modification of non-methylated cytosines to uracil), said template only consists of three bases. Since bisulphite treatment only works when using single stranded DNA, the majority of DNA after completion of said bisulphite treatment is single stranded. Primers that are used for amplification of such DNA sequences are characterized by reduced complexity since they only consist of three bases.
Genomic DNA was propagated using the Qiagen REPLI g Midi Kit according to the manufacturer's protocol. Subsequently, 1 μg of said genomic DNA was used in 10 independent reactions wherein the DNA was subjected to bisulphite treatment using the EpiTect Bisulfite Kit followed by purification. The resulting DNA of each reaction was pooled and used in the subsequent amplification reactions.
The final EGTA concentration was between 0.25 and 10 mM.
One set of samples consisting of two reactions was incubated on ice for 120 min, whereas the other set of samples also consisting of two reactions was incubated at room temperature for 120 min. Subsequently both sets of samples were analyzed using the Rotor-Gene Q 5plex HRM System.

[4] = biological target: T1, chemically inactivated Taq DNA polymerase; assay: Amplification of bisulphite-treated DNA in the presence of EGTA and different magnesium concentrations; assay type: biochemical; details: for Ct / Ct Average: 5 mM EGTA
Procedure: In the follow-up experiment said primers and said bisulphite-treated DNA were used in amplification reactions wherein the magnesium dependency was analyzed.
The final concentration of EGTA was 5 mM. The HRM master mix was supplemented with 0.1 0.6 mM magnesium.
Two sets of reactions consisting of duplicates were used in the amplification experiment. One set of samples was incubated on ice for 120 min, whereas the other set of samples was incubated at room temperature for 120 min. Subsequently the samples were analyzed using the Rotor-Gene Q 5plex HRM System.

Taq = Taq (Thermus aquaticus, UniProt P19821); assay: Endpoint PCR (HugI, 1.2 kb genomic target) with and without EGTA, agarose gel; assay type: biochemical; details: 5 mM EGTA, 5-10 mM Mg, compared to reactions without EGTA
Sequence of Taq (P19821 whole entry): as above
Procedure: An amplification experiment was performed using a test system that is known to be prone to produce non-specific side products. A genomic DNA sequence of 1.2 kb was the target sequence. Primers HugA and HugB were used.
Reactions with and without EGTA were performed in parallel. In set A, the magnesium concentration was varied in 1 mM steps, start and end point were 5 and 10 mM respectively. In set B, the start point was 0.5 mM and the end point was 4 mM Mg. The setup is described in Table 2.
The amplification program was as follows (Table 3):
35 cycles were performed.

[5] = pH-dependency of the binding constants of chelating agents; assay type: physicochemical; details: worked out from known pK values from literature (FIG. 1)
Procedure: Tris buffer is routinely used in PCR buffers. At room temperature the pH of a Tris based PCR buffer is 8.7. […] This means that at 95° C. the pH value is 6.6. In order to select a chelating agent for PCR experiments, the pH-dependency of the binding constants of three different chelating agents, NTA; EDTA and EGTA, was investigated. Known pK values from literature for every chelating agent were used to determine the pH dependency of the complex formation (FIG. 1).

[6] = for pH of Tris based PCR buffer: room temperature
[7] = 0.25 mM EGTA, room temperature 120 min
[8] = 0.5 mM EGTA, room temperature 120 min
[9] = 0.75 mM EGTA, room temperature 120 min
[10] = 1 mM EGTA, room temperature 120 min
[11] = 1.5 mM EGTA, room temperature 120 min
[12] = 2 mM EGTA, room temperature 120 min
[13] = 4 mM EGTA, room temperature 120 min
[14] = 10 mM EGTA, room temperature 120 min
[15] = 0 mM MgCl2 added, on ice 120 min
[16] = 0 mM MgCl2 added, room temperature 120 min
[17] = 0.1 mM MgCl2, room temperature 120 min
[18] = 0.2 mM MgCl2, room temperature 120 min
[19] = 0.3 mM MgCl2, room temperature 120 min
[20] = 0.4 mM MgCl2, room temperature 120 min
[21] = 0.5 mM MgCl2, room temperature 120 min
[22] = 0.6 mM MgCl2, room temperature 120 min

Q: Which pKa [1] does the source give for `NC(=O)CNCCS(=O)(=O)O` [Buffer 1, ACES] here?
A: 6.80

Q: Which pKa [1] does the source give for `O=S(=O)(O)CCN(CCO)CCO` [Buffer 2, BES] here?
A: 7.10

Q: For `OCC(CO)(CO)NCCCNC(CO)(CO)CO` [Buffer 4, BIS-TRIS propane], which pKa [1] is on record?
A: 6.80

Q: For `O=S(=O)(O)CCCN1CCN(CCO)CC1` [Buffer 5, EPPS], which pKa [1] is on record?
A: 8.00

Q: For `O=S(=O)(O)CCN1CCN(CCO)CC1` [Buffer 7, HEPES], which pKa [1] is on record?
A: 7.50

Q: Which pKa [1] does the source give for `O=S(=O)(O)CCN1CCN(CCO)CC1` [Buffer 8, HEPES sodium salt] here?
A: 7.50

Q: Which pKa [1] does the source give for `O=S(=O)(O)CCN1CCN(CCS(=O)(=O)O)CC1` [Buffer 17, PIPES] here?
A: 6.80

Q: Which pKa [1] does the source give for `O=S(=O)(O)CCCNC(CO)(CO)CO` [Buffer 22, TAPS] here?
A: 8.40

Q: With `O=S(=O)([O-])CCCNC(CO)(CO)CO.[Na+]` [Buffer 23, TAPS sodium salt] as the compound, how does the pKa [1] read?
A: 8.40

Q: Which pKa [1] does the source give for `O=S(=O)(O)CCNC(CO)(CO)CO` [Buffer 24, TES] here?
A: 7.50

Q: For `O=C(O)CN(CCN(CC(=O)O)CC(=O)O)CC(=O)O` [EDTA, ethylene di amine tetra acetic acid], which DNase enzymatic activity ([2]; 42° C.) is on record?
A: restoring enzymatic activity

Q: And the DNase enzymatic activity ([2]; on ice, 1, 0.5, 0.1 U DNase)?
A: largely reduced enzymatic activity

Q: Which Ct ([3]; 0.25 mM EGTA, on ice 120 min) does the source give for `O=C(O)CN(CCOCCOCCN(CC(=O)O)CC(=O)O)CC(=O)O` [EGTA, ethylene glycol bis(amino ethyl) N, N′-tetra acetic acid] here?
A: 25.34 and 25.51

Q: And the “Ct Average” value ([3]; 0.25 mM EGTA, on ice 120 min)?
A: 25.43

Q: What about the Ct [3, 7] of the same compound?
A: 25.2 and 25.42

Q: What about the “Ct Average” value [3, 7] of the same compound?
A: 25.31

Q: What about the Ct ([3]; 0.5 mM EGTA, on ice 120 min) of the same compound?
A: 25.53 and 25.62

Q: And the “Ct Average” value ([3]; 0.5 mM EGTA, on ice 120 min)?
A: 25.58

Q: What about the Ct [3, 8] of the same compound?
A: 25.55 and 25.47

Q: And the “Ct Average” value [3, 8]?
A: 25.51

Q: And the Ct ([3]; 0.75 mM EGTA, on ice 120 min)?
A: 25.78 and 25.88

Q: What about the “Ct Average” value ([3]; 0.75 mM EGTA, on ice 120 min) of the same compound?
A: 25.83

Q: And the Ct [3, 9]?
A: 25.91 and 25.8

Q: What about the “Ct Average” value [3, 9] of the same compound?
A: 25.86

Q: And the Ct ([3]; 1 mM EGTA, on ice 120 min)?
A: 26.59 and 26.61

Q: And the “Ct Average” value ([3]; 1 mM EGTA, on ice 120 min)?
A: 26.55

Q: And the Ct [3, 10]?
A: 26.47 and 26.5

Q: And the “Ct Average” value [3, 10]?
A: 26.49

Q: What about the Ct ([3]; 1.5 mM EGTA, on ice 120 min) of the same compound?
A: 28.17 and 28.21

Q: What about the “Ct Average” value ([3]; 1.5 mM EGTA, on ice 120 min) of the same compound?
A: 28.19

Q: What about the Ct [3, 11] of the same compound?
A: 27.76 and 27.88

Q: What about the “Ct Average” value [3, 11] of the same compound?
A: 27.82

Q: What about the Ct ([3]; 2 mM EGTA, on ice 120 min) of the same compound?
A: 30.16 and 28.53

Q: What about the “Ct Average” value ([3]; 2 mM EGTA, on ice 120 min) of the same compound?
A: 29.35

Q: And the Ct [3, 12]?
A: 29.9 and 29.71

Q: And the “Ct Average” value [3, 12]?
A: 29.81

Q: What about the Ct ([3]; 4 mM EGTA, on ice 120 min) of the same compound?
A: 38.37 and 38.14

Q: What about the “Ct Average” value ([3]; 4 mM EGTA, on ice 120 min) of the same compound?
A: 38.26

Q: And the Ct [3, 13]?
A: 37.32 and 37.02

Q: And the “Ct Average” value [3, 13]?
A: 37.13

Q: What about the Ct [3, 14] of the same compound?
A: 35.18 and 34

Q: And the “Ct Average” value [3, 14]?
A: 34.59

Q: And the success of amplification ([3]; EGTA concentrations exceeded 2 mM)?
A: successful amplification was prevented

Q: And the “specificity of amplification and effect on Ct” value ([3]; EGTA up to a final concentration of 0.75 mM)?
A: increase of specificity without affecting the Ct values

Q: What about the DNase activity ([2]; 100 μM EGTA, 42° C.) of the same compound?
A: largely restored DNase activity

Q: What about the “DNA degradation by DNase” value ([2]; 100 μM EGTA, on ice, 0.01, 0.1 and 1 U DNase, 5 and 15 min) of the same compound?
A: almost complete inhibition of degradation

Q: And the “DNA degradation by DNase” value ([2]; 100 μM EGTA, on ice, 1 U DNase for 15 min, compared to the sample without EGTA)?
A: degradation is significantly reduced

Q: What about the Ct [4, 15] of the same compound?
A: 28.74 and 28.89

Q: What about the “Ct Average” value [4, 15] of the same compound?
A: 28.82

Q: What about the Ct [4, 16] of the same compound?
A: 28.86 and 28.67

Q: What about the “Ct Average” value [4, 16] of the same compound?
A: 28.77

Q: What about the Ct ([4]; 0.1 mM MgCl2, on ice 120 min) of the same compound?
A: 27.82 and 27.79

Q: What about the “Ct Average” value ([4]; 0.1 mM MgCl2, on ice 120 min) of the same compound?
A: 27.81

Q: What about the Ct [4, 17] of the same compound?
A: 27.53 and 27.71

Q: And the “Ct Average” value [4, 17]?
A: 27.62

Q: What about the Ct ([4]; 0.2 mM MgCl2, on ice 120 min) of the same compound?
A: 26.85 and 27.39

Q: What about the “Ct Average” value ([4]; 0.2 mM MgCl2, on ice 120 min) of the same compound?
A: 27.12

Q: And the Ct [4, 18]?
A: 26.69 and 27.27

Q: What about the “Ct Average” value [4, 18] of the same compound?
A: 26.98

Q: And the Ct ([4]; 0.3 mM MgCl2, on ice 120 min)?
A: 26.25 and 26.51

Q: And the “Ct Average” value ([4]; 0.3 mM MgCl2, on ice 120 min)?
A: 26.38

Q: What about the Ct [4, 19] of the same compound?
A: 26.14 and 26.64

Q: And the “Ct Average” value [4, 19]?
A: 26.39

Q: What about the Ct ([4]; 0.4 mM MgCl2, on ice 120 min) of the same compound?
A: 26.01 and 26.14

Q: What about the “Ct Average” value ([4]; 0.4 mM MgCl2, on ice 120 min) of the same compound?
A: 26.08

Q: And the Ct [4, 20]?
A: 26.06 and 26.24

Q: What about the “Ct Average” value [4, 20] of the same compound?
A: 26.15

Q: And the Ct ([4]; 0.5 mM MgCl2, on ice 120 min)?
A: 25.81 and 25.89

Q: What about the “Ct Average” value ([4]; 0.5 mM MgCl2, on ice 120 min) of the same compound?
A: 25.85

Q: And the Ct [4, 21]?
A: 25.82 and 25.86

Q: And the “Ct Average” value [4, 21]?
A: 25.84

Q: And the Ct ([4]; 0.6 mM MgCl2, on ice 120 min)?
A: 25.61 and 25.56

Q: And the “Ct Average” value ([4]; 0.6 mM MgCl2, on ice 120 min)?
A: 25.59

Q: What about the Ct [4, 22] of the same compound?
A: 25.55 and 25.49

Q: And the “Ct Average” value [4, 22]?
A: 25.52

Q: What about the specificity of amplification ([4]; EGTA up to a final concentration of 5 mM) of the same compound?
A: increased specificity

Q: And the “specificity of PCR (side products on agarose gel)” value (Taq)?
A: more specific as of having less side products; also recorded: results in specific PCR product

Q: What about the “correlation between pH value and binding constant” value [5] of the same compound?
A: strong correlation between pH value and binding constant

Q: For `NC(CO)(CO)CO` [Tris], which “pH of Tris buffer” value ([6]; 95° C.) is on record?
A: 6.6

Q: What about the “pH of Tris based PCR buffer” value [6] of the same compound?
A: 8.7

Q: And the “pH of Tris based PCR buffer” value ([6]; listed as Tris buffer)?
A: around 8.7
